Measurements published in EP0174571A2, “Derivatives of amino acids, process for their preparation and pharmaceutical compositions” (BOEHRINGER INGELHEIM KG, priority 1984, dated 1986).

Columns and labels:
Kaninchen = assay: Blood pressure test in the rabbit (carotid artery); type: in vivo; settings: 1 mg/kg i.v.; blood pressure from the carotid
Procedure: Am Kaninchen (Blutdruckversuch aus der Carotis) wird nach Gabe von 1 mg/kg der Substanz, i.v., eine Blutdrucksenkung von 37 mm beobachtet.

narkotisierten Ratte = assay: Blood pressure lowering in the anaesthetised rat after angiotensin I pressor stimulus; type: in vivo; settings: 0,3 mg/kg i.v.; blood pressure raised beforehand with 0,1 mg/kg Angiotensin I i.v.; long lasting
Procedure: So erzeugt das N-[N-(3-Phenyl-2-S-mercaptopropanoyl)-S-alanyl]-S-prolin an der narkotisierten Ratte in einer Dosierung von 0,3 mg/kg i.v. eine lang anhaltende Blutdrucksenkung von 67 %, wenn man vorher durch eine i.v.-Gabe von 0,1 mg/kg Angiotensin I den Blutdruck steigert.

For `CC(NC(=O)C(S)Cc1ccccc1)C(=O)N1CCCC1C(=O)O` (centres unmarked) [Beispiel 1, N-[N-(3-Phenyl-2-S-mercatopropanoyl)-S-alanyl]-S-prolin], the Blutdrucksenkung (Kaninchen) was 37 mm and the Blutdrucksenkung (narkotisierten Ratte) was 67%.
